Reference: patent US20220339227A1, “COMPOSITIONS OF CANNABINOIDS FOR DELIVERY BY INHALATION” (priority 2019, published 2022)
Where two headings read alike, the source gives them in different places.

How the values were obtained:
[1] = rat, 7.98 mg/kg, cited from earlier work; for CBD serum level: vaporized CBD, by four hours
[2] = Huntington's disease patients, oral 10 mg/kg/day for 6 weeks; cited from earlier work
[3] = Pharmacokinetic study in rats: dry powder insufflation of TFF-CBD and intravenous CBD solution; type: in vivo; details: plasma, intravenous solution 10 mg/kg, rat, read-out: Cannabidiol concentration in rat plasma, Intravenous
Protocol: A dry powder formulation for inhalation containing 25% (w/w) of Cannabidiol (CBD) was developed using TFF technology, and a pharmacokinetic (PK) study in rats was performed using PennCentury™ DP4 dry powder Insufflator™ with a target delivered dose of 10 mg/kg CBD. […] For comparison and in contrast to the plasma levels of this TFF-CBD inhaled powder, in an inhaled CBD pharmacokinetic study in rats reported by Hložek et al. (2017) using CBD dissolved in a ethanolic solution and vaporized using heat, the inventors calculated based on information in this paper the administered amount of CBD as the delivered dose of 1.798 mg, or 7.98 mg/kg (calculated according Wang et al., 2014; DD=C×RMV×D, where DD is the delivered dose in mg, C is the concentration of drug powder in air in mg/L, RMV is the respiratory minute volume of a rat in L/min (RMV (L/min) for rats is calculated as =0.608×BW (kg)^0.852), and D is the exposure duration in min; based on 20 mg CBD nebulized into 9.5 L dosing chamber; a calculated RMV of 0.17 L/min, an average body weight of 225 g and exposure time of 5 min). […] There is a difference between this TFF-CBD inhaled powder that maintained relatively constant plasma levels over 8 hours compared to the rapid decline in serum levels of inhaled CBD ethanolic solution reported by Hložek et al. (2017). Possible explanations include that the TFF-CBD powder can better avoid lung clearance and that the TFF-CBD powder particles deposited in the lungs continue to dissolve and be absorbed from the lungs to plasma. (Beinborn et al., 2012; Wang et al., 2014; Carvalho et al., 2014). […] For comparison, based on CBD plasma levels of Huntington's disease patients, as reported by Consroe et al. (1991), the orally administered CBD dose of 10 mg/kg/day, which is the recommended maintenance dose of Epidiolex®, for 6 weeks by oral administration resulted a steady state CBD plasma level between 5.9 and 11.2 ng/mL.
To study of plasma level with lower dose of the TFF-CBD powder by dry powder inhalation, another pharmacokinetic study in rats was performed using PennCentury™ DP4 dry powder Insufflator™ with a target delivered dose of 3 mg/kg and 1 mg/kg CBD. […] In other words, TFF-CBD dry powder inhalation was more efficient in delivering CBD than the vaporized CBD liquid. Therefore, delivery of TFF-CBD powder by dry powder inhalation requires a lower dose to reach the similar systemic levels of CBD as compared to vaporized CBD liquid by inhalation, thus showing TFF-CBD will present better efficacy at equivalent doses.

C=C(C)[C@@H]1CCC(C)=C[C@H]1c1c(O)cc(CCCCC)cc1O [Cannabidiol]
CBD serum level, peak ([1]; vaporized CBD ethanolic solution, immediately after removal from inhalation dosing chamber): about 220 ng/mL | CBD serum level ([1]; listed as CBD): less than 20 ng/mL | CBD serum level [1]: below 20 ng/mL | effect of the dosing level in Huntington's disease [2]: neither symptomatically effective nor toxic | concentration at 0.083 h ([3]; n=5, 0.083 h): 4280 ± 891 ng/mL | concentration at 0.25 h ([3]; n=5, 0.25 h): 1770 ± 297 ng/mL | concentration at 0.5 h ([3]; n=5, 0.5 h): 1040 ± 217 ng/mL | concentration at 1 h ([3]; n=5, 1 h): 601 ± 193 ng/mL | concentration at 2 h ([3]; n=5, 2 h): 272 ± 112 ng/mL | concentration at 4 h ([3]; n=5, 4 h): 50 ± 23 ng/mL | concentration at 8 h ([3]; n=5, 8 h): 16.1 ± 11.3 ng/mL
